These results are taken from patent US20200383844A1, “ABSORBENT ARTICLE” (Kao Corporation, priority 2017, published 2020).

On data set [1], the source says:
(§1) Definitions of “spreading coefficient to the liquid having surface tension of 50 mN/m” and “water solubility” of the liquid film cleavage agent, as specified in the first aspect and the second aspect, and measuring methods of surface tension (γw) of a liquid film (liquid having surface tension of 50 mN/m), surface tension (γo) of a liquid film cleavage agent, interfacial tension (γwo) between the liquid film and the liquid film cleavage agent, and water solubility of the liquid film cleavage agent are as described in the paragraphs {0015} to {0022} in WO 2016/098796.
Hereinafter, the present invention will be described more in detail with reference to Examples, but the present invention is not limited thereto. In addition, both terms “part” and “%” in the Examples are based on mass unless otherwise noted. […] In addition, a sign “-” in the following Tables means that neither an agent shown in a name of an item is used, nor the result has an applicable value in the item, or the like. Moreover, a leftward arrow “←” means that the content is the same as described in an adjacent column indicated by the arrow.
(§2) On the occasion, as a “liquid having surface tension of 50 mN/m,” a solution was used, in which the solution was prepared by adding, to 100 g of deionized water, 3.75 μL of POE sorbitan monolaurate (trade name “RHEODOL Super TW-L120,” manufactured by Kao Corporation) being a nonionic surface active substance by a micropipette (trade name “ACURA 825,” manufactured by Socorex Isba SA), and adjusting the surface tension to 50±1 mN/m. Moreover, the water solubility was measured by adding the agent for every 0.0001 g.

Data set [2] in a line: Surface tension of liquid film cleavage agent. Type of data set: physicochemical. The settings on record: 25° C., RH 65%.
A short description of data set [3]: Spreading coefficient of liquid film cleavage agent. It counts as physicochemical. The settings on record: 25° C., RH 65%.
Source text: as §1
(§3) Hereinafter, the present invention will be described more in detail with reference to Examples, but the present invention is not limited thereto. In addition, both terms “part” and “%” in the Examples are based on mass unless otherwise noted. […]
as §2

Data set [4] can be described thus: Interfacial tension of liquid film cleavage agent. The settings on record: 25° C., RH 65%. Type of data set: physicochemical.
Source text: as §1, §3, §2

A short description of data set [5]: Viscosity of liquid film cleavage agent. It counts as physicochemical. As to conditions: 25° C., RH 65%, average of three. On the procedure:
First, 40 g of a liquid film cleavage agent is prepared. […] This operation is repeated three times, and an average value is adopted as the viscosity. In addition, when the liquid film cleavage agent is solid, the liquid film cleavage agent is heated to a temperature of a melting point of the liquid film cleavage agent plus 5° C. to induce phase transition into liquid, and the measurement is performed with keeping the temperature conditions.
As a result of measuring viscosity by the method shown in (Method for measuring viscosity of liquid film cleavage agent) described above, the viscosity of the liquid film cleavage agent was 163 cps.

As to “POP-modified dimethyl silicone [POP(12)-modified dimethyl silicone]”, the Water solubility in data set [1] is on record as 0.025 or less g.

On to PPG, for which, in data set [1], the Water solubility is recorded as 0.025 or less g.

Take epoxy-modified dimethyl silicone: in data set [1], the Water solubility entry is given as “← g”.

POP alkyl ether [POP(15) alkyl ether]: in data set [1], the Water solubility result is “← g”. In data set [2], this substance showed a Surface tension of 31.8 mN/m. Besides, the “Spreading coefficient to liquid having surface tension of 50 mN/m” value in data set [3] stood at 5.4 mN/m. Also, in data set [4], the “Interfacial tension to liquid having surface tension of 50 mN/m” value amounted to 12.8 mN/m. Besides, the Viscosity in data set [5] worked out at 129 cps.
